Data taken from US20220386606A1, “SPECIFICALLY SUBSTITUTED 3-PHENYL-5-SPIROCYCLOPENTYL-3-PYRROLIN-2-ONES AND THEIR USE AS HERBICIDES” (Bayer Aktiengesellschaft, priority 2019, published 2022).

Legend:
ALOMY [1] = test: Pre-emergence herbicidal action against ALOMY; format: in vivo, Alopecurus myosuroides; details: 320 g/ha, scored visually after 3 weeks vs untreated controls
Outline: (§1)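 Weed and crop seeds sown in sandy loam, then WP or EC formulations sprayed onto covering soil pre-emergence as aqueous suspension or emulsion at 600 to 800 L/ha water with 0.2% wetting agent. Greenhouse-grown; visual damage scored after 3 weeks versus untreated controls, 0–100%.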

DIGSA [2] = test: Pre-emergence herbicidal action against DIGSA; format: in vivo, Digitaria sanguinalis; details: 320 g/ha, scored visually after 3 weeks vs untreated controls
Outline: as §1

LOLRI [3] = test: Pre-emergence herbicidal action against LOLRI (Table 8, titled post-emergence at 320 g/ha); format: in vivo, Lolium rigidum; details: table stands in the pre-emergence section
Outline: as §1

SETVI [4] = test: Pre-emergence herbicidal action against SETVI; format: in vivo, Setaria viridis; details: 320 g/ha, scored visually after 3 weeks vs untreated controls
Outline: as §1

AMARE = test: Pre-emergence herbicidal action against AMARE; format: in vivo, Amaranthus retroflexus; details: 320 g/ha
Outline: as §1

VIOTR = test: Pre-emergence herbicidal action against VIOTR; format: in vivo, Viola tricolor; details: 320 g/ha
Outline: as §1

ALOMY [5] = test: Post-emergence herbicidal action against ALOMY; format: in vivo, Alopecurus myosuroides; details: 80 g/ha, visual assessment after about 3 weeks
Outline: (§2)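 Sow in sandy loam and grow in the greenhouse for 2 to 3 weeks to the one-leaf stage. Spray the compound as an aqueous suspension or emulsion with 0.2% wetting agent, 600 to 800 l/ha water rate. Hold about 3 weeks, then score damage visually versus controls.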

AVEFA [6] = test: Post-emergence herbicidal action against AVEFA; format: in vivo, Avena fatua; details: 80 g/ha, visual assessment after about 3 weeks
Outline: as §2

DIGSA [7] = test: Post-emergence herbicidal action against DIGSA; format: in vivo, Digitaria sanguinalis; details: 80 g/ha, visual assessment about 3 weeks after treatment vs untreated controls
Outline: as §2

ECHCG [8] = test: Post-emergence herbicidal action against ECHCG; format: in vivo, Echinochloa crus-galli; details: 80 g/ha, visual assessment about 3 weeks after treatment vs untreated controls
Outline: as §2

LOLRI [9] = test: Post-emergence herbicidal action against LOLRI; format: in vivo, Lolium rigidum; details: 80 g/ha, visual assessment about 3 weeks after treatment vs untreated controls
Outline: as §2

ABUTH = test: Post-emergence herbicidal action against ABUTH; format: in vivo, Abutylon threophrasti; details: 80 g/ha, visual assessment about 3 weeks after treatment vs untreated controls
Procedure: Seeds of monocotyledonous and dicotyledonous weed and crop plants are laid out in sandy loam soil in wood-fiber pots, covered with soil and cultivated in a greenhouse under good growth conditions. 2 to 3 weeks after sowing, the test plants are treated at the one-leaf stage. The compounds of the invention, formulated in the form of wettable powders (WP) or as emulsion concentrates (EC), are then sprayed onto the green parts of the plants as aqueous suspension or emulsion at a water application rate equating to 600 to 800 l/ha with addition of 0.2% wetting agent. After the test plants have been left to stand in the greenhouse under optimal growth conditions for about 3 weeks, the action of the preparations is assessed visually in comparison to untreated controls (herbicidal action in percent (%): 100% activity=the plants have died, 0% activity=like control plants).

AVEFA [10] = test: Pre-emergence herbicidal action against AVEFA; format: in vivo, Avena fatua; details: 320 g/ha, scored visually after 3 weeks vs untreated controls
Outline: as §1

ECHCG [11] = test: Pre-emergence herbicidal action against ECHCG; format: in vivo, Echinochloa crus-galli; details: 320 g/ha, scored visually after 3 weeks vs untreated controls
Outline: as §1

MATIN = test: Pre-emergence herbicidal action against MATIN; format: in vivo; details: 320 g/ha
Description: (§3) Seeds of monocotyledonous and dicotyledonous weed plants and crop plants are laid out in sandy loam soil in wood-fiber pots and covered with soil. The compounds of the invention, formulated in the form of wettable powders (WP) or as emulsion concentrates (EC), are then applied to the surface of the covering soil as aqueous suspension or emulsion at a water application rate equating to 600 to 800 L/ha with addition of 0.2% wetting agent.
(§4) After the treatment, the pots are placed in a greenhouse and kept under good growth conditions for the trial plants. The damage to the test plants is scored visually after a test period of 3 weeks by comparison with untreated controls (herbicidal activity in percent (%): 100% activity=the plants have died, 0% activity=like control plants).

SETVI [12] = test: Post-emergence herbicidal action against SETVI; format: in vivo, Setaria viridis; details: 80 g/ha, visual assessment about 3 weeks after treatment vs untreated controls
Outline: as §2

POLCO = test: Pre-emergence herbicidal action against POLCO; format: in vivo, Polygonum convolvulus; details: 320 g/ha
Description: as §3, §4

VERPE = test: Pre-emergence herbicidal action against VERPE; format: in vivo, Veronica persica; details: 320 g/ha
Outline: as §1

Row | SMILES | Pre-emergence action against ALOMY in % (ALOMY [1]) [%] | Pre-emergence action against DIGSA in % (DIGSA [2]) [%] | Pre-emergence herbicidal action against LOLRI in % (LOLRI [3]) [%] | Pre-emergence action against SETVI in % (SETVI [4]) [%] | Pre-emergence action against AMARE in % (AMARE) [%] | Pre-emergence action against VIOTR in % (VIOTR) [%] | Post-emergence action against ALOMY in % (ALOMY [5]) [%] | Post-emergence action against AVEFA in % (AVEFA [6]) [%] | Post-emergence action against DIGSA in % (DIGSA [7]) [%] | Post-emergence action against ECHCG in % (ECHCG [8]) [%] | Post-emergence action against LOLRI in % (LOLRI [9]) [%] | Post-emergence action against ABUTH in % (ABUTH) [%] | Pre-emergence action against AVEFA in % (AVEFA [10]) [%] | Pre-emergence action against ECHCG in % (ECHCG [11]) [%] | Pre-emergence action against MATIN in % (MATIN) [%] | Post-emergence action against SETVI in % (SETVI [12]) [%] | Pre-emergence action against POLCO in % (POLCO) [%] | Pre-emergence action against VERPE in % (VERPE) [%]
1 | CC#Cc1cc(C)c(C2=C(O)C3(CCC(COCC)C3)NC2=O)c(F)c1 (stereo not shown) [Example I-35] | 100 | 100 | 100 | 100 | 90 | 100 | 100 | 80 | 100 | 100 | 100 | 80 | – | – | – | – | – | –
2 | CC#Cc1cc(F)c(C2=C(O)C3(CCC(COCC)C3)NC2=O)c(OC)c1 (stereo not shown) [Example I-42] | – | 100 | 100 | 100 | – | 80 | 90 | 90 | 100 | 100 | 90 | 80 | 90 | 80 | 80 | 100 | – | –
3 | CC#Cc1cc(Br)c(C2=C(O)C3(CCC(COC)C3)NC2=O)c(OCC)c1 (stereo not shown) [Example I-69] | 100 | 100 | 100 | 100 | – | 90 | 100 | – | 90 | 100 | 100 | – | 90 | 100 | – | – | 100 | 80
4 | C#CCOCC1CCC2(C1)NC(=O)C(c1c(C)cc(C#CC)cc1Cl)=C2O (stereo not shown) [Example I-78] | 100 | 100 | 100 | 100 | 100 | 100 | 100 | 80 | 90 | 90 | 90 | – | 90 | 100 | 80 | 100 | – | 90
5 | CC#Cc1cc(Br)c(C2=C(OC(=O)C(C)C)C3(CCC(COC)C3)NC2=O)c(OC)c1 (stereo not shown) [Example P-04] | 100 | 100 | 100 | 100 | 80 | 100 | 100 | – | 100 | 100 | 100 | 80 | 100 | – | 90 | 100 | – | 90
6 | CC#Cc1cc(Br)c(C2=C(OC(=O)C(C)C)C3(CCC(COCC)C3)NC2=O)c(OC)c1 (stereo not shown) [Example P-23] | 100 | 100 | 100 | 100 | 90 | 100 | 100 | – | 100 | 100 | 90 | 80 | 100 | 100 | – | 100 | – | 90
7 | CC#Cc1cc(C)c(C2=C(OC(=O)OCC)C3(CCC(COCC)C3)NC2=O)c(F)c1 (stereo not shown) [Example P-53] | 100 | 100 | 100 | 100 | – | 80 | 100 | 90 | 100 | 100 | 100 | 80 | 90 | 100 | 90 | – | – | –
8 | CC#Cc1cc(F)c(C2=C(OC(=O)OCC)C3(CCC(COCC)C3)NC2=O)c(OC)c1 (stereo not shown) [Example P-61] | 100 | 100 | 100 | 100 | – | – | 90 | 80 | 100 | 100 | 100 | 80 | 90 | 100 | – | 100 | – | 90
9 | CC#Cc1cc(F)c(C2=C(OC(=O)C(C)C)C3(CCC(COCC)C3)NC2=O)c(OC)c1 (stereo not shown) [Example P-64] | 100 | 100 | 100 | 100 | – | – | 100 | 80 | 100 | 100 | 100 | 80 | 80 | 90 | – | 100 | – | –
10 | CC#Cc1cc(Br)c(C2=C(OC(=O)OCC)C3(CCC(COCC)C3)NC2=O)c(OCC)c1 (stereo not shown) [Example P-89] | 100 | 100 | 100 | 100 | – | 80 | 100 | – | 90 | 100 | 90 | – | 100 | 100 | – | 100 | 100 | –
